Assay results as given in the supplement of paper PMC10307832.

Key:
Assay in all cases: relative viability (nuclei count vs DMSO), 5 days (fraction); higher = more cells survive
BAY61-3606 + Decitabine = compound: COC1=C(C=C(C=C1)C2=CC3=NC=CN3C(=N2)NC4=C(C=CC=N4)C(=O)N)OC [BAY61-3606] + Nc1ncn([C@H]2C[C@H](O)[C@@H](CO)O2)c(=O)n1 [Decitabine] (partner 2 µM)
Outline: (§1)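 For relative viability, nuclei counts in treated wells were divided by those in vehicle wells. Lung cancer cell lines had been pin-tool dosed in 1536-well plates the day after seeding and cultured for 5 days, then fixed and stained in one step (final 0.05% Triton X-100, 1% formaldehyde, 1 ug/ml Hoechst) and imaged at 4×. Doses were one drug alone or a fixed anchor-drug dose plus five library-drug doses (not always all listed) in √10 steps, and values are duplicate-plate medians.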

BAY61-3606 + Phenformin = compound: COC1=C(C=C(C=C1)C2=CC3=NC=CN3C(=N2)NC4=C(C=CC=N4)C(=O)N)OC [BAY61-3606] + N=C(N)NC(=N)NCCc1ccccc1 [Phenformin] (partner 250 µM)
Outline: as §1

BAY61-3606 + Trametinib = compound: COC1=C(C=C(C=C1)C2=CC3=NC=CN3C(=N2)NC4=C(C=CC=N4)C(=O)N)OC [BAY61-3606] + CC(=O)Nc1cccc(-n2c(=O)n(C3CC3)c(=O)c3c(Nc4ccc(I)cc4F)n(C)c(=O)c(C)c32)c1 [Trametinib] (partner 0.02 µM)
Outline: as §1

Doxorubicin + Navitoclax = compound: COc1cccc2c1C(=O)c1c(O)c3c(c(O)c1C2=O)C[C@@](O)(C(=O)CO)C[C@@H]3O[C@H]1C[C@H](N)[C@H](O)[C@H](C)O1 [Doxorubicin] + CC1(C)CCC(c2ccc(Cl)cc2)=C(CN2CCN(c3ccc(C(=O)NS(=O)(=O)c4ccc(N[C@H](CCN5CCOCC5)CSc5ccccc5)c(S(=O)(=O)C(F)(F)F)c4)cc3)CC2)C1 [Navitoclax] (partner 0.5 µM)
Outline: as §1

For NCI-H358, the relative viability (BAY61-3606 + Decitabine; first compound 0.02 µM) was 0.226, the relative viability (BAY61-3606 + Decitabine; first compound 0.06325 µM) was 0.228 and the relative viability (BAY61-3606 + Decitabine; first compound 0.2 µM) was 0.241. The relative viability (BAY61-3606 + Decitabine; first compound 0.6325 µM) was 0.228, the relative viability (BAY61-3606 + Decitabine; first compound 2 µM) was 0.14 and the relative viability (BAY61-3606 + Phenformin; first compound 0.02 µM) was 0.371. The relative viability (BAY61-3606 + Phenformin; first compound 0.06325 µM) was 0.32, the relative viability (BAY61-3606 + Phenformin; first compound 0.2 µM) was 0.351 and the relative viability (BAY61-3606 + Phenformin; first compound 0.6325 µM) was 0.244. For the same cell line, the relative viability (BAY61-3606 + Phenformin; first compound 2 µM) was 0.158, the relative viability (BAY61-3606 + Trametinib; first compound 0.02 µM) was 0.137 and the relative viability (BAY61-3606 + Trametinib; first compound 0.06325 µM) was 0.158. It also gave a relative viability (BAY61-3606 + Trametinib; first compound 0.2 µM) of 0.143, a relative viability (BAY61-3606 + Trametinib; first compound 0.6325 µM) of 0.146 and a relative viability (BAY61-3606 + Trametinib; first compound 2 µM) of 0.0995.
Cell Line EBC-1 has a relative viability (Doxorubicin + Navitoclax; first compound 0.001 µM) of 0.488, a relative viability (Doxorubicin + Navitoclax; first compound 0.003162 µM) of 0.524 and a relative viability (Doxorubicin + Navitoclax; first compound 0.01 µM) of 0.377. For the same cell line, the relative viability (Doxorubicin + Navitoclax; first compound 0.03162 µM) was 0.171 and the relative viability (Doxorubicin + Navitoclax; first compound 0.1 µM) was 0.123.
NCI-H1563 showed a relative viability (BAY61-3606 + Phenformin; first compound 0.02 µM) of 0.631, a relative viability (BAY61-3606 + Phenformin; first compound 0.06325 µM) of 0.59 and a relative viability (BAY61-3606 + Phenformin; first compound 0.2 µM) of 0.604. It also gave a relative viability (BAY61-3606 + Phenformin; first compound 0.6325 µM) of 0.62 and a relative viability (BAY61-3606 + Phenformin; first compound 2 µM) of 0.61.
Work on NCI-H1648 yielded a relative viability (BAY61-3606 + Decitabine; first compound 0.02 µM) of 0.423, a relative viability (BAY61-3606 + Decitabine; first compound 0.06325 µM) of 0.511 and a relative viability (BAY61-3606 + Decitabine; first compound 0.2 µM) of 0.504. The relative viability (BAY61-3606 + Decitabine; first compound 2 µM) was 0.445, the relative viability (BAY61-3606 + Trametinib; first compound 0.02 µM) was 0.47 and the relative viability (BAY61-3606 + Trametinib; first compound 0.06325 µM) was 0.466. The relative viability (BAY61-3606 + Trametinib; first compound 0.2 µM) was 0.546 and the relative viability (BAY61-3606 + Trametinib; first compound 2 µM) was 0.512.
Work on NCI-H661 yielded a relative viability (BAY61-3606 + Decitabine; first compound 0.02 µM) of 0.594, a relative viability (BAY61-3606 + Decitabine; first compound 0.06325 µM) of 0.546 and a relative viability (BAY61-3606 + Decitabine; first compound 0.2 µM) of 0.546. For the same cell line, the relative viability (BAY61-3606 + Decitabine; first compound 0.6325 µM) was 0.573, the relative viability (BAY61-3606 + Decitabine; first compound 2 µM) was 0.534 and the relative viability (BAY61-3606 + Phenformin; first compound 0.02 µM) was 0.271. The relative viability (BAY61-3606 + Phenformin; first compound 0.06325 µM) was 0.283, the relative viability (BAY61-3606 + Phenformin; first compound 0.2 µM) was 0.28 and the relative viability (BAY61-3606 + Phenformin; first compound 0.6325 µM) was 0.254. For the same cell line, the relative viability (BAY61-3606 + Phenformin; first compound 2 µM) was 0.248, the relative viability (BAY61-3606 + Trametinib; first compound 0.02 µM) was 0.638 and the relative viability (BAY61-3606 + Trametinib; first compound 0.06325 µM) was 0.585. The relative viability (BAY61-3606 + Trametinib; first compound 0.2 µM) was 0.551, the relative viability (BAY61-3606 + Trametinib; first compound 0.6325 µM) was 0.633 and the relative viability (BAY61-3606 + Trametinib; first compound 2 µM) was 0.541.
For A549, the relative viability (BAY61-3606 + Decitabine; first compound 0.02 µM) was 0.222, the relative viability (BAY61-3606 + Decitabine; first compound 0.06325 µM) was 0.261 and the relative viability (BAY61-3606 + Decitabine; first compound 0.2 µM) was 0.224. For the same cell line, the relative viability (BAY61-3606 + Decitabine; first compound 0.6325 µM) was 0.237, the relative viability (BAY61-3606 + Decitabine; first compound 2 µM) was 0.198 and the relative viability (BAY61-3606 + Phenformin; first compound 0.02 µM) was 0.17. It also gave a relative viability (BAY61-3606 + Phenformin; first compound 0.06325 µM) of 0.0908, a relative viability (BAY61-3606 + Phenformin; first compound 0.2 µM) of 0.0972 and a relative viability (BAY61-3606 + Phenformin; first compound 0.6325 µM) of 0.212. The relative viability (BAY61-3606 + Phenformin; first compound 2 µM) was 0.166, the relative viability (Doxorubicin + Navitoclax; first compound 0.001 µM) was 1.15 and the relative viability (Doxorubicin + Navitoclax; first compound 0.003162 µM) was 0.977. For the same cell line, the relative viability (Doxorubicin + Navitoclax; first compound 0.01 µM) was 0.468, the relative viability (Doxorubicin + Navitoclax; first compound 0.03162 µM) was 0.0557 and the relative viability (Doxorubicin + Navitoclax; first compound 0.1 µM) was 0.0324.
Cell Line NCI-H650 has a relative viability (BAY61-3606 + Decitabine; first compound 0.02 µM) of 0.358, a relative viability (BAY61-3606 + Decitabine; first compound 0.06325 µM) of 0.302 and a relative viability (BAY61-3606 + Decitabine; first compound 0.2 µM) of 0.338. For the same cell line, the relative viability (BAY61-3606 + Decitabine; first compound 0.6325 µM) was 0.385, the relative viability (BAY61-3606 + Decitabine; first compound 2 µM) was 0.301 and the relative viability (BAY61-3606 + Phenformin; first compound 0.02 µM) was 0.435. The relative viability (BAY61-3606 + Phenformin; first compound 0.06325 µM) was 0.42, the relative viability (BAY61-3606 + Phenformin; first compound 0.2 µM) was 0.375 and the relative viability (BAY61-3606 + Phenformin; first compound 0.6325 µM) was 0.428. The relative viability (BAY61-3606 + Phenformin; first compound 2 µM) was 0.405, the relative viability (BAY61-3606 + Trametinib; first compound 0.02 µM) was 1.09 and the relative viability (BAY61-3606 + Trametinib; first compound 0.06325 µM) was 1.05. The relative viability (BAY61-3606 + Trametinib; first compound 0.2 µM) was 0.922, the relative viability (BAY61-3606 + Trametinib; first compound 0.6325 µM) was 0.93 and the relative viability (BAY61-3606 + Trametinib; first compound 2 µM) was 0.838.
For NCI-H2228, the relative viability (BAY61-3606 + Phenformin; first compound 0.02 µM) was 0.37, the relative viability (BAY61-3606 + Phenformin; first compound 0.06325 µM) was 0.294 and the relative viability (BAY61-3606 + Phenformin; first compound 0.2 µM) was 0.368. It also gave a relative viability (BAY61-3606 + Phenformin; first compound 0.6325 µM) of 0.276, a relative viability (BAY61-3606 + Phenformin; first compound 2 µM) of 0.26 and a relative viability (BAY61-3606 + Trametinib; first compound 0.02 µM) of 0.523. The relative viability (BAY61-3606 + Trametinib; first compound 0.06325 µM) was 0.439, the relative viability (BAY61-3606 + Trametinib; first compound 0.2 µM) was 0.476 and the relative viability (BAY61-3606 + Trametinib; first compound 0.6325 µM) was 0.531. The relative viability (BAY61-3606 + Trametinib; first compound 2 µM) was 0.365, the relative viability (Doxorubicin + Navitoclax; first compound 0.001 µM) was 1.24 and the relative viability (Doxorubicin + Navitoclax; first compound 0.003162 µM) was 0.752. It also gave a relative viability (Doxorubicin + Navitoclax; first compound 0.01 µM) of 0.876, a relative viability (Doxorubicin + Navitoclax; first compound 0.03162 µM) of 0.552 and a relative viability (Doxorubicin + Navitoclax; first compound 0.1 µM) of 0.321.
In the case of NCI-H1299, the relative viability (Doxorubicin + Navitoclax; first compound 0.001 µM) is reported as 1.05, the relative viability (Doxorubicin + Navitoclax; first compound 0.003162 µM) is reported as 1.06 and the relative viability (Doxorubicin + Navitoclax; first compound 0.01 µM) is reported as 1.08. The relative viability (Doxorubicin + Navitoclax; first compound 0.03162 µM) was 1.06 and the relative viability (Doxorubicin + Navitoclax; first compound 0.1 µM) was 0.947.
In the case of NCI-H522, the relative viability (BAY61-3606 + Decitabine; first compound 0.02 µM) is reported as 0.68, the relative viability (BAY61-3606 + Decitabine; first compound 0.06325 µM) is reported as 0.635 and the relative viability (BAY61-3606 + Decitabine; first compound 0.2 µM) is reported as 0.732. For the same cell line, the relative viability (BAY61-3606 + Decitabine; first compound 0.6325 µM) was 0.742, the relative viability (BAY61-3606 + Decitabine; first compound 2 µM) was 0.517 and the relative viability (BAY61-3606 + Phenformin; first compound 0.02 µM) was 0.634. The relative viability (BAY61-3606 + Phenformin; first compound 0.06325 µM) was 0.624, the relative viability (BAY61-3606 + Phenformin; first compound 0.2 µM) was 0.674 and the relative viability (BAY61-3606 + Phenformin; first compound 0.6325 µM) was 0.749. The relative viability (BAY61-3606 + Phenformin; first compound 2 µM) was 0.557, the relative viability (BAY61-3606 + Trametinib; first compound 0.02 µM) was 0.607 and the relative viability (BAY61-3606 + Trametinib; first compound 0.06325 µM) was 0.723. It also gave a relative viability (BAY61-3606 + Trametinib; first compound 0.2 µM) of 0.818, a relative viability (BAY61-3606 + Trametinib; first compound 0.6325 µM) of 0.764 and a relative viability (BAY61-3606 + Trametinib; first compound 2 µM) of 0.688.
IA-LM was tested, and the relative viability (Doxorubicin + Navitoclax; first compound 0.001 µM) was 0.616, the relative viability (Doxorubicin + Navitoclax; first compound 0.003162 µM) was 0.821 and the relative viability (Doxorubicin + Navitoclax; first compound 0.01 µM) was 0.6. The relative viability (Doxorubicin + Navitoclax; first compound 0.03162 µM) was 0.278 and the relative viability (Doxorubicin + Navitoclax; first compound 0.1 µM) was 0.0497.
With SW 900 the relative viability (BAY61-3606 + Decitabine; first compound 0.02 µM) was 0.452, the relative viability (BAY61-3606 + Decitabine; first compound 0.6325 µM) was 0.396 and the relative viability (BAY61-3606 + Decitabine; first compound 2 µM) was 0.442. For the same cell line, the relative viability (BAY61-3606 + Phenformin; first compound 0.02 µM) was 0.736, the relative viability (BAY61-3606 + Phenformin; first compound 0.06325 µM) was 0.456 and the relative viability (BAY61-3606 + Phenformin; first compound 0.2 µM) was 0.489. The relative viability (BAY61-3606 + Phenformin; first compound 0.6325 µM) was 0.594, the relative viability (BAY61-3606 + Phenformin; first compound 2 µM) was 0.473 and the relative viability (BAY61-3606 + Trametinib; first compound 0.02 µM) was 0.877. The relative viability (BAY61-3606 + Trametinib; first compound 0.6325 µM) was 0.87 and the relative viability (BAY61-3606 + Trametinib; first compound 2 µM) was 0.585.
